Data: ChEMBL document CHEMBL4145641, “Identification of Thiourea-Based Inhibitors of the B-Cell Lymphoma 6 BTB Domain via NMR-Based Fragment Screening and Computer-Aided Drug Design” (J Med Chem, 2018)

Tests used:
[1] = Solubility in aqueous solution containing 1% DMSO; format: physicochemical
OCI-Ly1 = test: Growth inhibition of human OCI-LY1 cells incubated for 48 hrs by cell-titer-blue dye based assay; format: functional; conditions: OCI-Ly1, 48 h
OCI-Ly7 = test: Growth inhibition of human OCI-LY7 cells incubated for 48 hrs by cell-titer-blue dye based assay; format: functional; conditions: OCI-Ly7, 48 h
KARPAS-422 = test: Growth inhibition of human KARPAS422 cells incubated for 48 hrs by cell-titer-blue dye based assay; format: functional; conditions: KARPAS-422, 48 h
SU-DHL-6 = test: Growth inhibition of human SUDHL6 cells incubated for 48 hrs by cell-titer-blue dye based assay; format: functional; conditions: SU-DHL-6, 48 h
[2] = Growth inhibition of human OCI-Ly1-B50 cells incubated for 48 hrs by cell-titer-blue dye based assay; format: functional
Toledo = test: Growth inhibition of human Toledo cells incubated for 48 hrs by cell-titer-blue dye based assay; format: functional
SUD4 = test: Growth inhibition of human SUDHL4 cells incubated for 48 hrs by cell-titer-blue dye based assay; format: functional; conditions: SU-DHL-4, 48 h
[3] = target: B-cell lymphoma 6 protein (Homo sapiens, UniProt P41182); test: Binding affinity to fluorescently labeled recombinant BCL6 BTB domain (unknown origin) expressed in Escherichia coli BL21 (DE3) incubated for 10 mins by microscale thermophoresis method

Row | Structure (SMILES) | solubility [1] | GI50 (OCI-Ly1) | GI50 (OCI-Ly7) | GI50 (KARPAS-422) | GI50 (SU-DHL-6) | GI50 [2] | GI50 (Toledo) | GI50 (SUD4) | Kd [3]
1 | CCOC(=O)CNC(=O)Cn1cc(CN2CCN(C)CC2)c2ccc(NC(=S)NCCc3c[nH]c4ccccc34)cc21 | > 1000 µM | – | – | – | – | – | – | – | –
2 | CN1CCN(Cc2cn(CC(=O)N3CCOCC3)c3cc(NC(=S)NCCc4c[nH]c5ccccc45)ccc23)CC1 | > 1000 µM | > 500 µM | 193 µM | > 500 µM | > 500 µM | > 500 µM | > 500 µM | > 500 µM | –
3 | COC(=O)Cn1cc(CN2CCN(C)CC2)c2ccc(NC(=S)NCCc3c[nH]c4ccccc34)cc21 | – | > 500 µM | > 500 µM | > 500 µM | 100 µM | > 500 µM | > 500 µM | > 500 µM | –
4 | CN1CCN(Cc2cn(CC(=O)N3CCCCC3)c3cc(NC(=S)NCCc4c[nH]c5ccccc45)ccc23)CC1 | > 1000 µM | 100 µM | 33 µM | > 500 µM | 60 µM | > 500 µM | > 500 µM | 103 µM | –
5 | CC[C@H](C)[C@H](NC(=O)[C@H](CCC(=O)O)NC(=O)[C@H](Cc1cnc[nH]1)NC(=O)[C@H](NC(=O)[C@H](CO)NC(=O)[C@H](CCCNC(=N)N)NC(=O)CNC(=O)[C@H](C)NC(=O)[C@H](CCC(=O)O)NC(=O)[C@H](CCCCN)NC(=O)[C@@H](NC(=O)[C@@H](NC(=O)[C@H](C)NC(=O)[C@@H](NC(=O)[C@@H](N)CC(C)C)C(C)C)[C@@H](C)O)C(C)C)[C@@H](C)CC)C(=O)N1CCC[C@@H]1C(=O)N[C@@H](CCCNC(=N)N)C(=O)O | – | – | – | – | – | – | – | – | 30 µM
6 | CN1CCN(Cc2cn(CC(=O)NCC(=O)O)c3cc(NC(=S)NCCc4c[nH]c5ccccc45)ccc23)CC1 | > 1000 µM | > 500 µM | > 500 µM | > 500 µM | > 500 µM | > 500 µM | > 500 µM | > 500 µM | –
7 | CC(C)NC(=O)Cn1cc(CN2CCN(C)CC2)c2ccc(NC(=S)NCCc3c[nH]c4ccccc34)cc21 | > 1000 µM | > 500 µM | > 500 µM | > 500 µM | > 500 µM | > 500 µM | > 500 µM | > 500 µM | –
8 | O=C(O)CNC(=O)Cn1ccc2ccc(NC(=S)NCCc3c[nH]c4ccccc34)cc21 | – | > 500 µM | > 500 µM | > 500 µM | > 500 µM | > 500 µM | > 500 µM | > 500 µM | –
9 | CN1CCN(Cc2cn(CC(=O)N3CCN(C)CC3)c3cc(NC(=S)NCCc4c[nH]c5ccccc45)ccc23)CC1 | > 1000 µM | – | – | – | – | – | – | – | –
10 | CCN(CC)C(=O)Cn1cc(CN2CCN(C)CC2)c2ccc(NC(=S)NCCc3c[nH]c4ccccc34)cc21 | > 1000 µM | – | – | – | – | – | – | – | –
11 | CC1CN(C(=O)Cn2cc(CN3CCN(C)CC3)c3ccc(NC(=S)NCCc4c[nH]c5ccccc45)cc32)CCO1 (racemic) | > 1000 µM | > 500 µM | 116 µM | > 500 µM | > 500 µM | > 500 µM | > 500 µM | > 500 µM | –
